Measured values from patent US6365572B1, “Low molecular weight peptide derivatives as inhibitors of the laminin/nidogen interaction” (Aventis Pharma Deutschland GmbH, priority 1999, dated 2002).
Starred links: 1 amine or outer side, 2 acyl side, 3 side chain; linkers in the order of their positions; H or OH if unused. Non-standard residues stand in square brackets, D forms with d. Residues, ends and D or L forms follow the SMILES beside them. *: point of attachment. X2 = O=C([C@@H]1[C@H](c2ccccc2)CCN1[*:1])[*:2]; Pro(3R-Ph) = O=C(O)[C@H]1NCC[C@@H]1c1ccccc1; Dip = N[C@H](C(=O)O)C(c1ccccc1)c1ccccc1; 2Nal = N[C@@H](Cc1ccc2ccccc2c1)C(=O)O; d2Nal = N[C@H](Cc1ccc2ccccc2c1)C(=O)O; βAsp = O=C(O)[C@H](CC(=O)[*:2])N[*:1]; Glutaryl = O=C(CCCC(=O)[*:2])[*:1]; hPhe = N[C@@H](CCc1ccccc1)C(=O)O; 3Pal = N[C@@H](Cc1cccnc1)C(=O)O; Cit = NC(=O)NCCC[C@H](N)C(=O)O; NH(3-hydroxypropyl) = OCCCN*; Suc = O=C(CCC(=O)[*:2])[*:1]; Tle = CC(C)(C)[C@H](N)C(=O)O; X1 = CC(=O)c1ccccc1C(=O)*

Target: T1, laminin/nidogen interaction (laminin P1, recombinantly produced human nidogen) (Homo sapiens, UniProt P14543)
T1 construct: made in house; host or cells: HEK-293
T1 sequence (P14543 29-1247): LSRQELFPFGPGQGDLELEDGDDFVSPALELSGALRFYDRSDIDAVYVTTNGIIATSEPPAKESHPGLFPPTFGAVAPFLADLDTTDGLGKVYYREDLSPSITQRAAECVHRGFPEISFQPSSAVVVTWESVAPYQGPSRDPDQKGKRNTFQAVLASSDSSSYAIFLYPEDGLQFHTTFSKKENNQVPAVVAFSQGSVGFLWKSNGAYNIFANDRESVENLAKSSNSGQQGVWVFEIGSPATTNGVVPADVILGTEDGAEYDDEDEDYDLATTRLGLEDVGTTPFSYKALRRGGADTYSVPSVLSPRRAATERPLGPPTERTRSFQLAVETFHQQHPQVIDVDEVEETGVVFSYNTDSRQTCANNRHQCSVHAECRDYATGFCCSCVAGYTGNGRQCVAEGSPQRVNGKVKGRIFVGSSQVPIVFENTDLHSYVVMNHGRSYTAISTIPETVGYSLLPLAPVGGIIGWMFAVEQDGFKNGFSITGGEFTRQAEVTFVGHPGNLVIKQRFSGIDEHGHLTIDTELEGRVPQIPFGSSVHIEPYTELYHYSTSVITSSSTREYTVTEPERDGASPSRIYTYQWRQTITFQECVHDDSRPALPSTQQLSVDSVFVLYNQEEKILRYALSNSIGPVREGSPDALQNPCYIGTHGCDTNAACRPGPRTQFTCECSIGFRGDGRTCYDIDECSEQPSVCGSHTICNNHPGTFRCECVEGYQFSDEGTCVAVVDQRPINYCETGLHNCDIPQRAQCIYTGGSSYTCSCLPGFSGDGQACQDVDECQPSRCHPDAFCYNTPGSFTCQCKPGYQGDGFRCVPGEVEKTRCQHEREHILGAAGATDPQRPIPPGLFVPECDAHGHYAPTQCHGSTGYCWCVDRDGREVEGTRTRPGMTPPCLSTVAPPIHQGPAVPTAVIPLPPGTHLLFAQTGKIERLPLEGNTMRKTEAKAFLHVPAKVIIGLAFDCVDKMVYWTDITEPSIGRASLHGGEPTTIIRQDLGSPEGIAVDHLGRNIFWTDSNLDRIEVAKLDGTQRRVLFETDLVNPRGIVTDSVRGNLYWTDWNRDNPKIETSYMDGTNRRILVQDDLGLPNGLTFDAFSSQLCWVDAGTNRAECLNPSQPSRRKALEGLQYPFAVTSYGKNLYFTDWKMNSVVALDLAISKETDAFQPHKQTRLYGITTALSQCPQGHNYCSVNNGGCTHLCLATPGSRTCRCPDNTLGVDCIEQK
Assay: HTS screening assay (time-resolved fluorescence), inhibition of laminin/nidogen binding
Details: results table 1.3, synthesized compounds 1 to 43; read-out: IC50
Protocol: 5) The compound stocks were preincubated with nidogen (10 μl compound stock to 90 μl nidogen solution) and the assay was performed as described in the attached protocol, yielding a final screening concentration of 2.7 μM per compound. The isolation of laminin P1 from human placenta, human nidogen from transfected HEK-293 cells and mouse laminin γ1III 3-5 from HEK-293 cells is described in WO 98/31709. 3.1.1. HTS screening assay (highly sensitive assay variant): Time-Resolved Fluorescence Assay Coating of test tubes Microtiter plates (for example FluoroNunc®) were coated with 75 μl of a 0.1 μg/ml solution of laminin P1 (in 0.159 g of Na2CO3, 0.293 g of NaHCO3, 0.02 g of NaN3/liter, pH 9.2) at room temperature for 1 hour. The solution was then tipped off, and free binding sites were blocked by incubation with 0.5% BSA (in 7.9 g of NaCl, 1.2 g of Na2HPO4, 0.31 g of KCl, 0.23 g of NaH2PO4, 0.04% Tween 20/liter, pH 7.2) at room temperature for 0.5 hour. Completion of the blocking reaction was followed by decantation of the solution and washing once with 250 μl of washing buffer (PBS/0.04% Tween). Sequential inhibition In parallel with the coating, a preincubation of 85-100 μl of a 0.25 nM nidogen solution (recombinantly produced human nidogen) with inhibitor or standard was carried out in a separate reaction vessel (1 hour at room temperature in 7.9 g of NaCl, 1.2 g of Na2HPO4, 0.31 g of KCl, 0.23 g of NaH2PO4, 0.04% Tween 20/liter, 0.5% BSA, pH 7.2). 75 μl of the preincubation (nidogen+inhibitor or standard) were transferred into the coated wells of the microtiter plate and incubated at room temperature for 1 hour. This was followed by washing twice with PBS/0.04% Tween. Detection of the bound nidogen took place by incubation (at room temperature) for 1 hour with 75 μl of a specific antibody preparation obtained from yolks of eggs from a chicken immunized with human nidogen. The IgY fraction was used in a dilution of 1:500 in PBS/0.04% Tween. The complex of nidogen and specifically bound antibodies was, after washing twice with PBS/0.04% Tween, detected by adding anti-chicken IgY-biotin (75 μl of a 1:2500 dilution; Promega, Madison, Wis. 53711, 608-274-4330). An incubation time of 1 hour and washing twice with PBS/0.04% Tween were followed for this purpose by incubation with streptavidin-europium (Wallac; 1 hour at room temperature) and washing twice with PBS/0.04% Tween. It was finally possible, after adding 100 μl of enhancement solution (Wallac) and shaking for 5 minutes, to measure a fluorescence signal in a Victor multilabel counter using the europium protocol. The relation between the amount, of bound nidogen in the solutions with inhibitor and that of nidogen without added inhibitor was found.

Row | IC50 [nM] | SMILES
1 | 26300 | CC(C)[C@H](NC(=O)[C@H](C)NC(=O)[C@H](CC(N)=O)NC(=O)[C@@H](NC(=O)[C@@H](N)CC(=O)O)C(c1ccccc1)c1ccccc1)C(=O)NCC(=O)NCCCO [Compound 15, L-Aspartyl-L-(3,3-diphenyl)alanyl-L-asparaginyl-L-alanyl-L-valyl-glycine-3-hydroxypropylamide] (H-D[Dip]NAVG-{NH(3-hydroxypropyl)})
2 | 4280 | CC(C)[C@H](NC(=O)[C@H](CO)NC(=O)[C@H](CC(N)=O)NC(=O)[C@@H]1[C@H](c2ccccc2)CCN1C(=O)[C@@H](N)CC(=O)O)C(=O)NCC(=O)NCCCO [Compound 16, L-Aspartyl-L-(3S)-phenylprolyl-L-asparaginyl-L-seryl-L-valyl-glycine-3-hydroxypropylamide] (H-D[X2]NSVG-{NH(3-hydroxypropyl)})
3 | 2270 | CC(C)[C@H](NC(=O)[C@H](CO)NC(=O)[C@H](CC(N)=O)NC(=O)[C@@H]1[C@@H](c2ccccc2)CCN1C(=O)[C@@H](N)CC(=O)O)C(=O)NCC(=O)NCCCO [Compound 17, L-Aspartyl-L-(3R)-phenylprolyl-L-asparaginyl-L-seryl-L-valyl-glycine-3-hydroxypropylamide] (H-D[Pro(3R-Ph)]NSVG-{NH(3-hydroxypropyl)})
4 | 25000 | CC(C)[C@H](NC(=O)[C@H](CO)NC(=O)[C@H](CC(N)=O)NC(=O)[C@H](Cc1cccnc1)NC(=O)[C@@H](N)CC(=O)O)C(=O)NCC(=O)NCCCO [Compound 18, L-Aspartyl-L-3-(3-pyridyl)alanyl-L-asparaginyl-L-seryl-L-valyl-glycine-3-hydroxypropylamide] (H-D[3Pal]NSVG-{NH(3-hydroxypropyl)})
5 | 25000 | CC(C)[C@H](NC(=O)[C@H](CO)NC(=O)[C@H](CC(N)=O)NC(=O)[C@@H](Cc1ccc2ccccc2c1)NC(=O)[C@@H](N)CC(=O)O)C(=O)NCC(=O)NCCCO [Compound 19, L-Aspartyl-D-3-(2-naphthyl)alanyl-L-asparaginyl-L-seryl-L-valyl-glycine-3-hydroxypropylamide] (H-D[d2Nal]NSVG-{NH(3-hydroxypropyl)})
6 | 32500 | CC(C)[C@H](NC(=O)[C@H](CO)NC(=O)[C@H](CC(N)=O)NC(=O)[C@H](CCc1ccccc1)NC(=O)[C@@H](N)CC(=O)O)C(=O)NCC(=O)NCCCO [Compound 20, L-Aspartyl-L-homophenylalanyl-L-asparaginyl-L-seryl-L-valyl-glycine-3-hydroxypropylamide] (H-D[hPhe]NSVG-{NH(3-hydroxypropyl)})
7 | 340 | CC(C)[C@H](NC(=O)[C@H](CO)NC(=O)[C@H](CC(N)=O)NC(=O)[C@H](Cc1ccc2ccccc2c1)NC(=O)[C@@H](N)CC(=O)O)C(=O)NCC(N)=O [Compound 21, L-Aspartyl-L-3-(2-naphthyl)alanyl-L-asparaginyl-L-seryl-L-valyl-glycine-amide] (H-D[2Nal]NSVG-NH2)
8 | 180 | CC(C)[C@H](NC(=O)[C@H](CO)NC(=O)[C@H](CC(N)=O)NC(=O)[C@H](Cc1ccc2ccccc2c1)NC(=O)[C@@H](N)CC(=O)O)C(N)=O [Compound 22, L-Aspartyl-L-3-(2-naphthyl)alanyl-L-asparaginyl-L-seryl-L-valine-amide] (H-D[2Nal]NSV-NH2)
9 | 1490 | CC(=O)c1ccccc1C(=O)N[C@@H](Cc1ccc2ccccc2c1)C(=O)N[C@@H](CC(N)=O)C(=O)N[C@@H](CO)C(=O)N[C@H](C(=O)NCC(=O)NCCCO)C(C)C [Compound 23] (X1-[2Nal]NSVG-{NH(3-hydroxypropyl)})
10 | 230 | CC(C)[C@H](NC(=O)[C@H](CO)NC(=O)[C@H](CC(N)=O)NC(=O)[C@H](Cc1ccc2ccccc2c1)NC(=O)C[C@H](N)C(=O)O)C(=O)NCC(=O)NCCCO [Compound 25, L-β-Aspartyl-L-3-(2-naphthyl)alanyl-L-asparaginyl-L-seryl-L-valyl-glycine-3-hydroxypropylamide] (βAsp-[2Nal]NSVG-{NH(3-hydroxypropyl)})
11 | 450 | CC(C)[C@H](NC(=O)[C@H](CO)NC(=O)[C@H](CC(N)=O)NC(=O)[C@H](Cc1ccc2ccccc2c1)NC(=O)CCCC(=O)O)C(=O)NCC(=O)NCCCO [Compound 26, Glutaryl-L-3-(2-naphthyl)alanyl-L-asparaginyl-L-seryl-L-valyl-glycine-3-hydroxypropylamide] (Glutaryl-[2Nal]NSVG-{NH(3-hydroxypropyl)})
12 | 440 | CC(C)[C@H](NC(=O)[C@H](CO)NC(=O)[C@H](CC(N)=O)NC(=O)[C@H](Cc1ccc2ccccc2c1)NC(=O)[C@H](CC(=O)O)NC(=O)[C@@H](N)CCCNC(N)=O)C(=O)NCC(=O)NCCCO [Compound 27, L-Citrulyl-L-aspartyl-L-3-(2-naphthyl)alanyl-L-asparaginyl-L-seryl-L-valyl-glycine-3-hydroxypropylamide] (H-[Cit]D[2Nal]NSVG-{NH(3-hydroxypropyl)})
13 | 150 | CC(C)[C@H](NC(=O)[C@H](CO)NC(=O)[C@H](CC(N)=O)NC(=O)[C@H](Cc1ccc2ccccc2c1)NC(=O)[C@H](CC(=O)O)NC(=O)[C@@H](N)CCCNC(=N)N)C(=O)NCC(=O)NCCCO [Compound 28, L-Arginyl-L-aspartyl-L-3-(2-naphthyl)alanyl-L-asparaginyl-L-seryl-L-valyl-glycine-3-hydroxypropylamide] (H-RD[2Nal]NSVG-{NH(3-hydroxypropyl)})
14 | 240 | CC(C)[C@H](NC(=O)[C@H](CO)NC(=O)[C@H](CC(N)=O)NC(=O)[C@H](Cc1ccc2ccccc2c1)NC(=O)[C@H](CC(=O)O)NC(=O)[C@@H](N)CCCCN)C(=O)NCC(=O)NCCCO [Compound 29, L-Lysyl-L-aspartyl-L-3-(2-naphthyl)alanyl-L-asparaginyl-L-seryl-L-valyl-glycine-3-hydroxypropylamide] (H-KD[2Nal]NSVG-{NH(3-hydroxypropyl)})
15 | 250 | CC(C)[C@H](NC(=O)[C@H](C)NC(=O)[C@H](CC(N)=O)NC(=O)[C@H](Cc1ccc2ccccc2c1)NC(=O)CCC(=O)O)C(=O)NCC(=O)NCCCO [Compound 30, Succinyl-L-3-(2-naphthyl)alanyl-L-asparaginyl-L-alanyl-L-valyl-glycine-3-hydroxypropylamide] (Suc-[2Nal]NAVG-{NH(3-hydroxypropyl)})
16 | 170 | C[C@H](NC(=O)[C@H](CC(N)=O)NC(=O)[C@H](Cc1ccc2ccccc2c1)NC(=O)CCC(=O)O)C(=O)N[C@H](C(N)=O)C(C)(C)C [Compound 32, Succinyl-L-3-(2-naphthyl)alanyl-L-asparaginyl-L-alanyl-L-2-tert.butyl-glycine-amide] (Suc-[2Nal]NA[Tle]-NH2)
